Results reported in PubChem BioAssay (NCI).
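GI50: concentration for 50% inhibition of growth. TGI is the concentration that stops growth completely.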

What was measured:
Assay in all cases: NCI tumour cell line growth inhibition, 384-well format
A498 renal = tested on: A498 renal
A549 NSCLC = tested on: A549 NSCLC
ACHN renal = tested on: ACHN renal
BT-549 breast = tested on: BT-549 breast
CAKI-1 renal = tested on: CAKI-1 renal
COLO 205 colon = tested on: COLO 205 colon
DU-145 prostate = tested on: DU-145 prostate
EKVX NSCLC = tested on: EKVX NSCLC
HCC-2998 colon = tested on: HCC-2998 colon
HCT-116 colon = tested on: HCT-116 colon
HCT-15 colon = tested on: HCT-15 colon
HL-60(TB) leukemia = tested on: HL-60(TB) leukemia
HOP-62 NSCLC = tested on: HOP-62 NSCLC
HOP-92 NSCLC = tested on: HOP-92 NSCLC
HS 578T breast = tested on: HS 578T breast
HT29 colon = tested on: HT29 colon
IGROV1 ovarian = tested on: IGROV1 ovarian
KM12 colon = tested on: KM12 colon
LOX IMVI melanoma = tested on: LOX IMVI melanoma
M14 melanoma = tested on: M14 melanoma
MALME-3M melanoma = tested on: MALME-3M melanoma
MCF7 breast = tested on: MCF7 breast
MDA-MB-231 breast = tested on: MDA-MB-231 breast
MDA-MB-435 melanoma = tested on: MDA-MB-435 melanoma
MDA-MB-468 breast = tested on: MDA-MB-468 breast
MOLT-4 leukemia = tested on: MOLT-4 leukemia
NCI-H226 lung = tested on: NCI-H226 lung
NCI-H23 lung = tested on: NCI-H23 lung
NCI-H322M lung = tested on: NCI-H322M lung
NCI-H460 NSCLC = tested on: NCI-H460 NSCLC
NCI-H522 lung = tested on: NCI-H522 lung
NCI/ADR-RES ovarian = tested on: NCI/ADR-RES ovarian
OVCAR-3 ovarian = tested on: OVCAR-3 ovarian
OVCAR-4 ovarian = tested on: OVCAR-4 ovarian
OVCAR-5 ovarian = tested on: OVCAR-5 ovarian
OVCAR-8 ovarian = tested on: OVCAR-8 ovarian
PC-3 prostate = tested on: PC-3 prostate
RPMI-8226 leukemia = tested on: RPMI-8226 leukemia
RXF 393 renal = tested on: RXF 393 renal
SF-268 CNS = tested on: SF-268 CNS
SF-295 CNS = tested on: SF-295 CNS
SF-539 CNS = tested on: SF-539 CNS
SK-MEL-28 melanoma = tested on: SK-MEL-28 melanoma
SK-MEL-5 melanoma = tested on: SK-MEL-5 melanoma
SK-OV-3 ovarian = tested on: SK-OV-3 ovarian
SN12C renal = tested on: SN12C renal
SNB-19 CNS = tested on: SNB-19 CNS
SNB-75 CNS = tested on: SNB-75 CNS
SR leukemia = tested on: SR leukemia
T-47D breast = tested on: T-47D breast
TK-10 renal = tested on: TK-10 renal
U251 glioblastoma = tested on: U251 glioblastoma
UACC-257 melanoma = tested on: UACC-257 melanoma
UACC-62 melanoma = tested on: UACC-62 melanoma

O=C(CCCCCCNC(=O)c1cnc(N(c2ccccc2)c2ccccc2)nc1)NO
GI50 (A498 renal): 3.49 µM | TGI (A498 renal): 16.2 µM | GI50 (A549 NSCLC): 10.1 µM | TGI (A549 NSCLC): 25 µM | GI50 (ACHN renal): 7.93 µM | TGI (ACHN renal): 22.1 µM | GI50 (BT-549 breast): 3.08 µM | TGI (BT-549 breast): 13.3 µM | GI50 (CAKI-1 renal): 4.36 µM | TGI (CAKI-1 renal): 16.6 µM | GI50 (COLO 205 colon): 2 µM | TGI (COLO 205 colon): 3.9 µM | GI50 (DU-145 prostate): 2.18 µM | TGI (DU-145 prostate): 5.88 µM | GI50 (EKVX NSCLC): 11.3 µM | TGI (EKVX NSCLC): 43.8 µM | GI50 (HCC-2998 colon): 2.7 µM | TGI (HCC-2998 colon): 8.93 µM | GI50 (HCT-116 colon): 2.79 µM | TGI (HCT-116 colon): 10.5 µM | GI50 (HCT-15 colon): 13 µM | TGI (HCT-15 colon): 41.6 µM | GI50 (HL-60(TB) leukemia): 2.36 µM | TGI (HL-60(TB) leukemia): 3.82 µM | GI50 (HOP-62 NSCLC): 2.31 µM | TGI (HOP-62 NSCLC): 10.3 µM | GI50 (HOP-92 NSCLC): 3.26 µM | TGI (HOP-92 NSCLC): 13.4 µM | GI50 (HS 578T breast): 1.97 µM | TGI (HS 578T breast): 6.37 µM | GI50 (HT29 colon): 3.14 µM | TGI (HT29 colon): 13.2 µM | GI50 (IGROV1 ovarian): 2.13 µM | TGI (IGROV1 ovarian): 6.57 µM | GI50 (KM12 colon): 3.53 µM | TGI (KM12 colon): 16.1 µM | GI50 (LOX IMVI melanoma): 1.97 µM | TGI (LOX IMVI melanoma): 4.3 µM | GI50 (M14 melanoma): 3.7 µM | TGI (M14 melanoma): 14.8 µM | GI50 (MALME-3M melanoma): 1.49 µM | TGI (MALME-3M melanoma): 5.49 µM | GI50 (MCF7 breast): 2.18 µM | TGI (MCF7 breast): 11.8 µM | GI50 (MDA-MB-231 breast): 2.19 µM | TGI (MDA-MB-231 breast): 6.61 µM | GI50 (MDA-MB-435 melanoma): 2.38 µM | TGI (MDA-MB-435 melanoma): 5.28 µM | GI50 (MDA-MB-468 breast): 1.5 µM | TGI (MDA-MB-468 breast): 4.12 µM | GI50 (MOLT-4 leukemia): 1.34 µM | TGI (MOLT-4 leukemia): 2.62 µM | GI50 (NCI-H226 lung): 10.7 µM | TGI (NCI-H226 lung): 26.2 µM | GI50 (NCI-H23 lung): 4.27 µM | TGI (NCI-H23 lung): 21.2 µM | GI50 (NCI-H322M lung): 3.52 µM | TGI (NCI-H322M lung): 16.9 µM | GI50 (NCI-H460 NSCLC): 2.22 µM | TGI (NCI-H460 NSCLC): 11.3 µM | GI50 (NCI-H522 lung): 2.14 µM | TGI (NCI-H522 lung): 8.63 µM | GI50 (NCI/ADR-RES ovarian): 8.89 µM | TGI (NCI/ADR-RES ovarian): 84.1 µM | GI50 (OVCAR-3 ovarian): 2.01 µM | TGI (OVCAR-3 ovarian): 8.19 µM | GI50 (OVCAR-4 ovarian): 3.22 µM | TGI (OVCAR-4 ovarian): 13 µM | GI50 (OVCAR-5 ovarian): 1.84 µM | TGI (OVCAR-5 ovarian): 4.8 µM | GI50 (OVCAR-8 ovarian): 2.12 µM | TGI (OVCAR-8 ovarian): 13.9 µM | GI50 (PC-3 prostate): 2.52 µM | TGI (PC-3 prostate): 8.1 µM | GI50 (RPMI-8226 leukemia): 0.573 µM | TGI (RPMI-8226 leukemia): 1.81 µM | GI50 (RXF 393 renal): 4.37 µM | TGI (RXF 393 renal): 17.4 µM | GI50 (SF-268 CNS): 2.86 µM | TGI (SF-268 CNS): 10.1 µM | GI50 (SF-295 CNS): 4.5 µM | TGI (SF-295 CNS): 15.6 µM | GI50 (SF-539 CNS): 5.25 µM | TGI (SF-539 CNS): 22.4 µM | GI50 (SK-MEL-28 melanoma): 3.23 µM | TGI (SK-MEL-28 melanoma): 12.8 µM | GI50 (SK-MEL-5 melanoma): 2.02 µM | TGI (SK-MEL-5 melanoma): 4.16 µM | GI50 (SK-OV-3 ovarian): 2.92 µM | TGI (SK-OV-3 ovarian): 14.1 µM | GI50 (SN12C renal): 2.48 µM | TGI (SN12C renal): 8.92 µM | GI50 (SNB-19 CNS): 3.59 µM | TGI (SNB-19 CNS): 12.9 µM | GI50 (SNB-75 CNS): 4.65 µM | TGI (SNB-75 CNS): 30.3 µM | GI50 (SR leukemia): 0.323 µM | TGI (SR leukemia): 1.2 µM | GI50 (T-47D breast): 1.73 µM | TGI (T-47D breast): 4.32 µM | GI50 (TK-10 renal): 3.37 µM | TGI (TK-10 renal): 12.5 µM | GI50 (U251 glioblastoma): 1.85 µM | TGI (U251 glioblastoma): 4.3 µM | GI50 (UACC-257 melanoma): 1.07 µM | TGI (UACC-257 melanoma): 5.12 µM | GI50 (UACC-62 melanoma): 1.55 µM | TGI (UACC-62 melanoma): 4.13 µM
